The test system of series [1] is CYP3A4. Set-up: method as in Kimura et al. Particulars: ref Kimura et al., cited from earlier work; for inhibition of 6β-hydroxylation of testosterone: concentration of 100 μM; for IC50: read-out: IC50, 6β-hydroxylation of testosterone.
For series [2], the target named is CYP3A4 (Homo sapiens, UniProt P08684). The series is described as follows: CYP3A4 inhibition in human liver microsomes (midazolam 1-hydroxylation, nifedipine oxidation). Particulars: extracts 2 mg/mL, secondary metabolites 100 μM.
The test system of the next series is CYP3A enzyme. On the set-up: method as in previous studies. Particulars: ref previous studies; cited from earlier work.
Series [3] addresses T1, P-gp (Homo sapiens, UniProt P08183). Conditions: Caco-2; epicatechin 100 μM; reduced P app(B–A) and efflux of fexofenadine.
Series [4] addresses T1, P-gp. On the set-up: determining P-gp activity, using a Caco-2 cell model; host or cells: Caco-2 cells; method as in Kitagawa et al. Particulars: KB-C2 cells; ref Kitagawa et al.; cited from earlier work.

The values that follow come from PMC12508949, “Evaluation of the Pharmacokinetic Interactions of Maytenus ilicifolia Mart. ex Reiss Extracts on Drug Intestinal Permeability and Hepatic Metabolism” (ACS Omega, 2025).

Chain of CYP3A4 (Homo sapiens, UniProt P08684) (P08684 whole entry): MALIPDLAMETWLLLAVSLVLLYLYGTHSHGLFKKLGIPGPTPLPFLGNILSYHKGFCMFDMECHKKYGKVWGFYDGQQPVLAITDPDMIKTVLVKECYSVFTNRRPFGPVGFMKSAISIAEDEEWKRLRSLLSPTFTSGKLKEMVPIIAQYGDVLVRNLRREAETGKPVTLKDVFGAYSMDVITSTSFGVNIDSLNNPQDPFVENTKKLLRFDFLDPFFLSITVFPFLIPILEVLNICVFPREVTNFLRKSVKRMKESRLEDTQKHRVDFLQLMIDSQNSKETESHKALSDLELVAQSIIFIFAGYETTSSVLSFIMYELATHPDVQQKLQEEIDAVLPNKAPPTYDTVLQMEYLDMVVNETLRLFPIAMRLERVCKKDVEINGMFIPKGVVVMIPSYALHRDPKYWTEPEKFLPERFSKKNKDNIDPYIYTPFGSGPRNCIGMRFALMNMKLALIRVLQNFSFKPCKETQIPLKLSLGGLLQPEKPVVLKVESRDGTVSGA
T1 sequence (P08183 whole entry): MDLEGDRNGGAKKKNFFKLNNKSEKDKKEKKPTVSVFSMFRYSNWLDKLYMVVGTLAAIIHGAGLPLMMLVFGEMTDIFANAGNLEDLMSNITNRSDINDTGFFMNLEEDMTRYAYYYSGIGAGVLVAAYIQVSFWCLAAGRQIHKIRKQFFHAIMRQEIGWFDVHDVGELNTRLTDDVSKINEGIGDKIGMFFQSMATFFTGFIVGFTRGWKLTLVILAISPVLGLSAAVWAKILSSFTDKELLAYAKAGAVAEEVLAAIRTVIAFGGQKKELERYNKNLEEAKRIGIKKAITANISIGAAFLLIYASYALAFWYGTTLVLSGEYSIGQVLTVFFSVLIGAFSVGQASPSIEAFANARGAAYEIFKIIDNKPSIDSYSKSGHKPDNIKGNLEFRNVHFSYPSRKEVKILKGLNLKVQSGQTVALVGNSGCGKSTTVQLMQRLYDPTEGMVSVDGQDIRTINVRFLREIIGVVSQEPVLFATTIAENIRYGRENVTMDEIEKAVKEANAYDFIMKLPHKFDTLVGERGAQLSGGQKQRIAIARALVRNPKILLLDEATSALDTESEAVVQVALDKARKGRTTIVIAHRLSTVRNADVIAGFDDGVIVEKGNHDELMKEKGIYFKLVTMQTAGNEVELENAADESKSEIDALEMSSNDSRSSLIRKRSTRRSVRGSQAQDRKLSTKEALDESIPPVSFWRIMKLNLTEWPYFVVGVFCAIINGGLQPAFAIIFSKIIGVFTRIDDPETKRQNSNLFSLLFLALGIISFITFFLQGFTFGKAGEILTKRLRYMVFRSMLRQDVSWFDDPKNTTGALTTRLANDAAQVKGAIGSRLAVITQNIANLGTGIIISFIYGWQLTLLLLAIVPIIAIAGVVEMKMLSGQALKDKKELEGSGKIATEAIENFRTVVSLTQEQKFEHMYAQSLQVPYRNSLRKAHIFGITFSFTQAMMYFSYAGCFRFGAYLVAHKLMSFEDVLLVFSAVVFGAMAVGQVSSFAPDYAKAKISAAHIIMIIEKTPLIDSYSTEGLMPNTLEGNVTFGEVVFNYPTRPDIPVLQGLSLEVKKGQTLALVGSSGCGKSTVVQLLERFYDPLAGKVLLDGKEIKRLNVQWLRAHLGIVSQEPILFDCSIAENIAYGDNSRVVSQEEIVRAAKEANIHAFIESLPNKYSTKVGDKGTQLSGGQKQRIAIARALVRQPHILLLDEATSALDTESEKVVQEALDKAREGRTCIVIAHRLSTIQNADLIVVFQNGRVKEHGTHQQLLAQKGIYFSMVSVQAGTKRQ

For `O=c1c(O)c(-c2ccc(O)cc2)oc2cc(O)cc(O)c12` [kaempferol], in the series with CYP3A4 [1], the “inhibition of 6β-hydroxylation of testosterone” value is given as 100% and the IC50 was 8.8 µM.

Regarding `O=c1c(O)c(-c2ccc(O)c(O)c2)oc2cc(O)cc(O)c12` [quercetin], in the series with CYP3A4 [1], the “inhibition of 6β-hydroxylation of testosterone” value was […] and the IC50 is […]. For the same molecule, on CYP3A4 [2] (negative control = 100%), the “remaining activity (%RA), midazolam 1-hydroxylation” value is on record as “markedly inhibited” and the “remaining activity (%RA), nifedipine oxidation” value is “markedly inhibited”.

For the molecule `O.Oc1cc(O)c2c(c1)O[C@H](c1ccc(O)c(O)c1)[C@@H](O)C2` [catechin], the “inhibitory activity on the CYP3A enzyme, testosterone 6β-hydroxylation” value with CYP3A enzyme was “higher than 50%”. The “remaining activity (%RA) of CYP3A4, substrate reaction not specified” value at CYP3A4 [2] is “higher than 50%”.

With `Oc1cc(O)c2c(c1)O[C@H](c1ccc(O)c(O)c1)[C@H](O)C2` [epicatechin], the “P-gp inhibitory potential (in words)” value at P-gp [3] was “slight inhibitory potential”. Also, the “inhibitory activity on the CYP3A enzyme, testosterone 6β-hydroxylation” value in the series on CYP3A enzyme is 50%. Moreover, on P-gp [4], the “effect on P-gp activity (in words)” value was “did not observe any effect”.
